Measured values as given in US11865091B2, “Supporting immunomodulatory agent” (Flexopharm Brain GMBH & Co. KG, priority 2014, dated 2024).
Entries after “also recorded” stand apart in the source; their conditions may differ.

How the values were obtained:
[1] = system: intestinal microbiota; test: Composition of the intestinal microbiome; type: in vivo, mice; settings: for effect on normal intestinal microbiota / number of bacteria degrading propionate and butyrate: intestinal microbiome
Excerpt: The inventive acids, in particular propionic acid and butyric acid have an influence on the bowel physiology and the microbiome present there. In this way, they have an impact on the composition of the microbiome.

[2] = system: CD4+CD25+ Foxp3 cells; test: Regulatory T cell levels in mouse EAE model; type: in vivo; settings: for proliferation and amount of regulatory T cells: in the intestines and blood
Description: FIG. 4: is a graph showing the effect of propionic acid diet initiated at the time of disease induction (DI) compared to a control group on levels of CD4+CD25+ Foxp3 cells in mouse EAE model.
FIG. 5 is a graph showing the effect of lauric acid diet (250 μM and 500 μM) initiated at the time of disease induction (DI) compared to a control group on levels of CD4+CD25+ Foxp3 cells in mouse EAE model.
(§1) Mice kept under standardized conditions were fed on a normal diet enriched with long-chain fatty acids (30.9% lauric acid) and additionally with 200 μl of propionate daily administered orally. The propionate was given either at the time of disease induction (DI) or at the onset of the disease (OD).
(§2) For the induction of EAE the mice were anesthetized and administered two subcutaneous injections of a 50 μl emulsion applied to the left and right tail basis and comprising a total of 200 μg MOG35-55 (myelin oligodendrocyte glycoprotein) and 200 μg Freund's adjuvant (CFA) with 4 mg/ml of M. tuberculosis. Pertussistoxin ([…]) was given intraperitoneally on day 0 and 2 after the induction. The clinical assessment took place on a daily basis using a 5-point scale (SEM). The assessment was as follows: • 0=normal • 1=Tail paralysis impairing raising • 2=Gait ataxia • 3=Paraparesis of hind legs • 4=Tetraparesis • 5=Death Mice showing SEM 4 or 5 were excluded.

[3] = system: TH1 and TH17 cells; test: Th1/Th17 cells in small intestine and central nervous system, EAE model; type: in vivo; settings: mouse EAE, lauric acid enriched diet
Excerpt: (§3) Moreover, the aliphatic chain length of the carboxylic acids also affects the […] autoimmunity as well as the regulatory response of Treg in an in vivo mouse model.

[4] = system: experimental autoimmune encephalomyelitis (EAE); test: Mouse EAE model, daily clinical assessment on 5-point scale (SEM); type: in vivo
Description: as §1, §2

[5] = system: Foxp3; test: Gene expression profiling of signature cytokines in EAE mice; type: in vivo, mouse; settings: EAE mice fed propionic acid
Excerpt: as §3

[6] = system: IL-10; test: as above; type: in vivo, mouse; settings: EAE mice fed propionic acid
Excerpt: as §3

[7] = system: TGFβ; test: as above; type: in vivo, mouse; settings: EAE mice fed propionic acid
Excerpt: as §3

[8] = system: experimental autoimmune encephalomyelitis (EAE); test: Mouse EAE model: relative axonal density, demyelination of white matter, CD3+ cells; type: in vivo; settings: versus control group, FIG. 3
Description: FIG. 3: is a graph showing the effect of propionic acid diet initiated at the time of disease induction (DI) or at the time of onset of symptoms (OD) compared to a diet control group on relative axonal density, demyelination in the white matter, and CD3+ cells in the mouse EAE model.
as §1, §2
The influence of propionic acid on the relative axonal density, the demyelination of the white matter, and the number of CD3+-cells is shown in FIG. 3.

[9] = system: adiponectin; test: Clinical study of sodium propionate, adiponectin levels; type: in vivo, human; settings: 4 weeks after administration had been terminated, FIG. 6 column C
Excerpt: FIG. 6 is a graph showing the effect of administration of sodium propionate in a clinical study in ten patients on adiponectin levels.

CCCC(=O)O [butyric acid]
effect on normal intestinal microbiota [1]: only slightly affected
number of bacteria degrading propionate and butyrate [1]: increases significantly
proliferation and amount of regulatory T cells [2]: positive effect

CCCCCCCCCCCC(=O)O [lauric acid, reference compound]
TH1 and TH17 cells in the small intestine [3]: significant reduction
Th1/Th17 in the central nervous system [3]: accumulation
number of Provotellaceae and some families of Phylum Bacteroidetes ([1]; mice): reduce significantly
concentration dependence of the percentage reduction of CD4+CD25+ Foxp3 cells ([2]; lauric acid 250 μM and 500 μM, FIG. 5): dependent on concentration
CD4+CD25+ Foxp3 cells ([2]; lauric acid 250 μM and 500 μM, versus control value, FIG. 5): reduction

CCC(=O)O [propionic acid]
effect on normal intestinal microbiota [1]: only slightly affected
number of bacteria degrading propionate and butyrate [1]: increases significantly
disease course versus control group ([4]; propionic acid given on the day of onset of disease (OD), FIG. 2): significantly less favorable disease course
disease course versus control group ([4]; propionic acid given prophylactically (at disease induction, DI)): significant improvement
Foxp3 gene expression [5]: increased values; also recorded: significant increase
IL-10 gene expression [6]: increased values; also recorded: significant increase
TGFβ gene expression [7]: increased values; also recorded: significant increase
proliferation and amount of regulatory T cells [2]: positive effect
number of regulatory T cells (CD4+CD25+ Foxp3+ Treg) ([2]; mouse EAE, propionic acid at disease induction (DI), versus control group, FIG. 4): significant increase
demyelination of the white matter [8]: significant improvement
number of CD3+ cells [8]: significant improvement
relative axonal density [8]: significant improvement

CCC(=O)[O-].[Na+] [sodium propionate]
duration of the adiponectin effect [9]: lasts longer than the administration duration
